The source of these data is the NIST ThermoML archive (doi:10.1016/j.jct.2017.09.007).

Data set [1] is described as follows: Molar enthalpy of transition or fusion. The following applies: Crystal; DSC.
The nature of data set [2]: molar heat capacity at constant pressure. The following applies: 298.15 K, 100 kPa, Small sample (50 mg) DSC.
For data set [3] the following is noted: Crystal; DTA.

Numbers after ± are expanded uncertainties.

Regarding `CCOC(=O)c1ccc(O)cc1` [ethyl 4-hydroxybenzoate], the “Molar enthalpy of transition or fusion” value in data set [1] was found to be 27.5 ± 0.63 kJ/mol. For the same molecule, the “molar heat capacity at constant pressure” value in data set [2] (Crystal) is reported as 233.93 ± 3.6 J/K/mol. Besides, the Normal melting temperature in data set [3] turned out to be 115.70 ± 0.45 °C.
For the molecule `CCOC(=O)c1ccccc1O` [ethyl 2-hydroxybenzoate], in data set [1], the “Molar enthalpy of transition or fusion” value worked out at 24.2 ± 0.61 kJ/mol. Further, the “molar heat capacity at constant pressure” value in data set [2] (Liquid) stood at 283.07 ± 4.4 J/K/mol. Besides, in data set [3], the Normal melting temperature is 1.33 ± 0.53 °C.
Regarding `CCOC(=O)c1cccc(O)c1` [ethyl 3-hydroxybenzoate], in data set [1], the “Molar enthalpy of transition or fusion” value was determined as 25.8 ± 0.61 kJ/mol. The “molar heat capacity at constant pressure” value in data set [2] (Crystal) was 217.22 ± 3.4 J/K/mol. For the same molecule, in data set [3], the Normal melting temperature was 72.23 ± 0.46 °C.
